Experimental data: ChEMBL document CHEMBL3232726, “Discovery of 2-oxo-1,2-dihydrobenzo[cd]indole-6-sulfonamide derivatives as new RORγ inhibitors using virtual screening, synthesis and biological evaluation” (Eur J Med Chem, 2014)

Experiments:
[1] = target: T1, Nuclear receptor ROR-gamma (Homo sapiens, UniProt P51449); assay: Antagonist activity at human His6-tagged RORgamma ligand binding domain (262 to 507 aa) assessed as inhibition of SRC1-4 co-activator peptide recruitment by luminescence-based AlphaScreen assay
T1 sequence (P51449 whole entry): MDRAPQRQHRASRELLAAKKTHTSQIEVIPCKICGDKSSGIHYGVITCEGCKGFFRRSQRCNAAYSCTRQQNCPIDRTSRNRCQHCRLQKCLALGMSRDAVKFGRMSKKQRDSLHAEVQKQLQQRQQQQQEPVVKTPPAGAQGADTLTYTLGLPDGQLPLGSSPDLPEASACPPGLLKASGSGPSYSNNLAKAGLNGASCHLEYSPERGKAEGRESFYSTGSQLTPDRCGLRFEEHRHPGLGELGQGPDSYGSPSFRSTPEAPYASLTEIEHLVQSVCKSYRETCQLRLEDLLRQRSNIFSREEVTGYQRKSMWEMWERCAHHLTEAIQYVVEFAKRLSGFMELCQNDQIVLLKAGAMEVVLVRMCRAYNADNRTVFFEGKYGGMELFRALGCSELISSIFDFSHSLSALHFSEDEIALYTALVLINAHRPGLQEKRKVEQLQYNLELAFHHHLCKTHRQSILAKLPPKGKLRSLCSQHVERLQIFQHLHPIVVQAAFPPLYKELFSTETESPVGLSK

[2] = target: T1, Nuclear receptor ROR-gamma; assay: Antagonist activity at Gal4-fused RORgamma (unknown origin) expressed in 293T cells after 24 hrs by luciferase reporter gene assay; format: cell-based
[3] = target: T1, Nuclear receptor ROR-gamma; assay: Antagonist activity at full-length RORgamma (unknown origin) expressed in 293T cells after 24 hrs by luciferase reporter gene assay; format: cell-based

SMILES | IC50 [1] | IC50 [2] | IC50 [3]
CCN1C(=O)c2cccc3c(S(=O)(=O)NCc4ccc(OC)cc4)ccc1c23 | 174 µM | – | –
C=CCn1c(COc2ccc(Cl)cc2)nnc1SCC(=O)N/N=C/c1cccc(O)c1 | 56.6 µM | – | –
CCN1C(=O)c2cccc3c(S(=O)(=O)NCC4CCN(C(C)=O)CC4)ccc1c23 | – | 6.03 µM | 0.59 µM
C=CCn1c(CCCN2C(=O)c3cccc4cccc(c34)C2=O)nnc1SCC(=O)Nc1ccc(S(N)(=O)=O)cc1 | 142 µM | – | –
CCN1C(=O)c2cccc3c(S(=O)(=O)N(C(=O)c4ccncc4)c4ccc(OC)cc4)ccc1c23 | 6.47 µM | 0.09 µM | 0.08 µM
CCN1C(=O)c2cccc3c(S(=O)(=O)Nc4ccccc4C(=O)c4ccccc4)ccc1c23 | 156 µM | – | –
NC(=O)c1ccc(NC(=O)c2cccc(COc3ccc(Cl)cc3)c2)cc1 | 168 µM | – | –
